The values that follow come from ChEMBL document CHEMBL1158079, “Antimalarial 4-phenylcoumarins from the stem bark of Hintonia latiflora” (J Nat Prod, 2006).

Data set [1] deals with Plasmodium berghei. As to the kind of experiment: Antimalarial activity as reduced schizont maturation in Plasmodium berghei ANKA infected mice (Mus musculus) at 40 mg/kg/day peroral dose over 4 days. The class given is functional. Set-up: scale not given: the % may be the effect or the level left. The conditions noted are these: route oral.
The test system of data set [2] is Plasmodium berghei. The data set can be described thus: Antimalarial activity as reduced schizont maturation in Plasmodium berghei after 16 hrs. The format is functional. Set-up: scale not given: the % may be the effect or the level left.
Data set [3] relates to Mus musculus. The data set can be described thus: Toxicity in Plasmodium berghei ANKA infected mice (Mus musculus) at 40 mg/kg/day, perorally after 4 days. The class given is organism-based. Details: route oral. The conditions noted are these: in vivo, po, 96 h.
Data set [4] deals with Plasmodium berghei. As to the kind of experiment: Antimalarial activity as reduced schizont maturation in Plasmodium berghei ANKA infected mice (Mus musculus) at 5 mg/kg/day peroral dose over 4 days. The class given is functional. Set-up: scale not given: the % may be the effect or the level left. The conditions noted are these: route oral.
Data set [5] deals with Plasmodium berghei. The data set can be described thus: Antimalarial activity reduced schizont maturation in Plasmodium berghei at 10 ug/mL after 16 hrs. Set-up: scale not given: the % may be the effect or the level left. The format is functional.
The subject of data set [6] is Plasmodium berghei. As to the kind of experiment: Antimalarial activity in schizont maturation against Plasmodium berghei ANKA infected mice (Mus musculus) at 200 mg/kg/day peroral dose over 4 days. The format is functional. The conditions noted are these: route oral.
The nature of data set [7]: Toxicity against human KB cells. The class given is cell-based. The conditions noted are these: read-out: ED50 (the source's name).
Data set [8] in a line: Toxicity against mouse P388 cells. To be noted: read-out: ED50 (the source's name). The format is cell-based.
Data set [9] in a line: Toxicity against human SQC1 UISO cells. To be noted: read-out: ED50 (the source's name). The class given is cell-based.

SMILES strings stand for the structures. Values after ≈ are worked out from the molar mass of the structure shown.

`COc1cc(O[C@@H]2O[C@H](CO)[C@@H](O)[C@H](O)[C@H]2O)c2c(-c3ccc(O)c(O)c3)cc(=O)oc2c1`: the Activity in data set [1] is recorded as 70.8%; in data set [2], 25.9%; in data set [3], “Non-toxic”.
The corresponding values for `COc1cc(O[C@@H]2O[C@H](CO)[C@@H](O)[C@H](O)[C@H]2O)c2c(-c3ccc(OC)c(O)c3)cc(=O)oc2c1` are 35.1%, 24.7% and “Non-toxic”.
Take `CCN(CC)CCCC(C)Nc1ccnc2cc(Cl)ccc12` (stereo not drawn) [CHLOROQUINE]: the Activity in data set [4] was 95.7%; in data set [5] it was 100%; in data set [6], 94%; in data set [3], “Non-toxic”.
With `Cc1c2ccncc2c(C)c2c1[nH]c1ccccc12` [ELLIPTECINE], the values for the CC50 in [7], in data set [8] and in data set [9] were 1.31 µg/mL (≈ 5.32 µM), less than 1 µg/mL and 1.77 µg/mL (≈ 7.19 µM), respectively.
